Measurements from US10981894B2, “Melanocortin subtype-2 receptor (MC2R) antagonists and uses thereof” (Crinetics Pharmaceuticals, Inc., priority 2018, dated 2021).

Molecular target: hMC2 receptor (Homo sapiens, UniProt Q01718)
Assay: hMC2 membrane binding assay ([125I]ACTH (1-39) Tyr23, SPA)
Set-up: scale not given here
Conditions: crude hMC2R membranes from CRE-bla-CHO-K1 cells expressing hMC2 receptor and hMRAP; [125I]ACTH (1-39) Tyr23 0.2 nM; 1.5 hours at room temperature; read-out: MC2R binding potency
Outline: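 Ki comes from non-linear regression of SPA scintillation counts. Displacement of 0.2 nM [125I]ACTH(1-39) Tyr23 by compound dose series (usually 0–10,000 nM final) ran 1.5 h at room temperature. Membranes came from CHO-K1 CRE-bla cells stably expressing hMC2R plus hMRAP, bead-coupled in pH 7.4 buffer with 0.2% BSA.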

Chain of hMC2 receptor (Q01718 whole entry): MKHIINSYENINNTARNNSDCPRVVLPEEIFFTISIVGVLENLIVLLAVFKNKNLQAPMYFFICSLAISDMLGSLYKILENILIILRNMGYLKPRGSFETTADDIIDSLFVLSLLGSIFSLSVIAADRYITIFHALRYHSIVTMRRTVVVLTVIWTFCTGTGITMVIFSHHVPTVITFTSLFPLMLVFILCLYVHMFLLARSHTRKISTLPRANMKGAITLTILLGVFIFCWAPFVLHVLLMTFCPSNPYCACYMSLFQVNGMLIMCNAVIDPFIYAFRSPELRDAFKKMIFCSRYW
Chain of hMC2 receptor (Q8TCY5 whole entry partner): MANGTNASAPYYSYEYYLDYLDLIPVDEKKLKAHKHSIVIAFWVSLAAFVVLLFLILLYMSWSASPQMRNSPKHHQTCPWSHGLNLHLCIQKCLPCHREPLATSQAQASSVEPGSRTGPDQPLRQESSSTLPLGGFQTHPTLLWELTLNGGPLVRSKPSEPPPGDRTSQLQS

SMILES | Ki
CCOc1ncccc1-c1ccc(N2CCN(C(=O)c3ccc(OC)cc3C(F)(F)F)C[C@H]2CC)c(C(=O)NCCN(C)C)c1F [Compound 1-168, N-[2-(dimethylamino)ethyl]-3-(2-ethoxypyridin-3-yl)-6-[(2R)-2-ethyl-4-[4-methoxy-2-(trifluoromethyl)benzoyl]piperazin-1-yl]-2-fluorobenzamide] | < 10 nM
CCOc1ncccc1-c1ccc(N2CCN(C(=O)c3ccc(OC)cc3C(F)(F)F)C[C@H]2CC)c(C(=O)NCCN(C)C)n1 [Compound 1-169, N-[2-(dimethylamino)ethyl]-2′-ethoxy-5-[(2R)-2-ethyl-4-[4-methoxy-2-(trifluoromethyl)benzoyl]piperazin-1-yl]-[2,3′-bipyridine]-6-carboxamide] | < 10 nM
CCOc1ncccc1-c1ccc(N2CCN(C(=O)c3ccc(OC)cc3C(F)(F)F)C[C@H]2CC)c(C(=O)NCC2=NCCN2)c1F [Compound 1-170, N-[(4,5-dihydro-1H-imidazol-2-yl)methyl]-3-(2-ethoxypyridin-3-yl)-6-[(2R)-2-ethyl-4-[4-methoxy-2-(trifluoromethyl)benzoyl]piperazin-1-yl]-2-fluorobenzamide] | < 10 nM
CCOc1ncccc1-c1ccc(N2CCN(C(=O)c3ccc(Cl)cc3C#N)C[C@H]2CC)c(C(=O)NCCNC)n1 [Compound 1-171, 5-[(2R)-4-(4-chloro-2-cyanobenzoyl)-2-ethylpiperazin-1-yl]-2′-ethoxy-N-[2-(methylamino)ethyl]-[2,3′-bipyridine]-6-carboxamide] | < 10 nM
CCOc1ncccc1-c1ccc(N2CCN(C(=O)c3ccc(Cl)cc3C(F)(F)F)C[C@H]2CC)c(C(=O)NCCN(C)C)c1F [Compound 1-173, 6-[(2R)-4-[4-chloro-2-(trifluoromethyl)benzoyl]-2-ethylpiperazin-1-yl]-N-[2-(dimethylamino)ethyl]-3-(2-ethoxypyridin-3-yl)-2-fluorobenzamide] | < 10 nM
CCOc1ncccc1-c1ccc(N2CCN(C(=O)c3ccc(F)cc3C(F)(F)F)C[C@H]2CC)c(C(=O)NCCN(C)C)c1F [Compound 1-174, N-[2-(dimethylamino)ethyl]-3-(2-ethoxypyridin-3-yl)-6-[(2R)-2-ethyl-4-[4-fluoro-2-(trifluoromethyl)benzoyl]piperazin-1-yl]-2-fluorobenzamide] | < 10 nM
CCOc1ncccc1-c1ccc(N2CCN(C(=O)c3ccc(F)cc3C(F)F)C[C@H]2CC)c(C(=O)NCCN(C)C)c1F [Compound 1-176, 6-[(2R)-4-[2-(difluoromethyl)-4-fluorobenzoyl]-2-ethylpiperazin-1-yl]-N-[2-(dimethylamino)ethyl]-3-(2-ethoxypyridin-3-yl)-2-fluorobenzamide] | < 10 nM
CCOc1ncccc1-c1ccc(N2CCN(C(=O)c3ccc(F)cc3C(F)F)C[C@H]2CC)c(C(=O)NCCNC)c1F [Compound 1-177, 6-[(2R)-4-[2-(difluoromethyl)-4-fluorobenzoyl]-2-ethylpiperazin-1-yl]-3-(2-ethoxypyridin-3-yl)-2-fluoro-N-[2-(methylamino)ethyl]benzamide] | < 10 nM
CCOc1ncccc1-c1ccc(N2CCN(C(=O)c3ccc(Cl)cc3Cl)C[C@H]2CC)c(C(=O)NCC2=NCCN2)c1F [Compound 1-178, 6-[(2R)-4-(2,4-dichlorobenzoyl)-2-ethylpiperazin-1-yl]-N-[(4,5-dihydro-1H-imidazol-2-yl)methyl]-3-(2-ethoxypyridin-3-yl)-2-fluorobenzamide] | < 10 nM
CCOc1ccc(C(=O)N2CCN(c3ccc(-c4cccnc4OCC)nc3C(=O)NCCNC)[C@H](CC)C2)c(C(F)(F)F)n1 [Compound 1-181, 2′-ethoxy-5-[(2R)-4-[6-ethoxy-2-(trifluoromethyl)pyridine-3-carbonyl]-2-ethylpiperazin-1-yl]-N-[2-(methylamino)ethyl]-[2,3′-bipyridine]-6-carboxamide] | < 10 nM
